Assays:
[1] = molecular target: T1, PCSK9 (Homo sapiens, UniProt Q8NBP7, G670E/V474I); assay: biochemical
[2] = molecular target: T1, PCSK9; assay: Assay 3 PCSK9 LDL-C uptake assay in HepG2 cells; assay type: cell-based; parameters: TEV site (C); His6 (C); host or cells: added to HepG2 (ATCC #HB-8065); conditions: 125 nM PCSK9, pHrodo Red-LDL, read-out: Assay 3 LDL uptake potency
Excerpt: This assay measures for PCSK9 antagonist activity based on a test compound's capacity to restore LDL-C-uptake in HepG2 cells. The assay is based on exogenous PCSK9 and LDL-C complexed with a pH-sensitive dye. Outside the cells, at neutral pH, the pHrodo Red-LDL is dimly fluorescent but upon LDLR mediated endocytosis it fluoresces brightly. PCSK9 traffics the LDLR to intracellular degradation and reduces uptake of LDL-C. Inhibition of PCSK9 reduces LDLR degradation and the increased LDL-C uptake is quantified by fluorescence microscopy.
• Cell medium: MEM supplemented with 10% FBS, 1×NEAA and Sodium Pyruvate • Assay medium: OptiMem supplemented with penicillin/streptomycin • Cells: HepG2 (ATCC #HB-8065)
• 1. Cryopreserved HepG2 cells were thawed in assay medium and centrifuged for 5 min at 250 g. Supernatant was discarded and the cell pellet resuspended in cell medium and counted with a Nucleocounter. Cells were again centrifuged 5 min at 250 g and the pellet was resuspended to 500000 cells/mL in assay medium. • 2. 20 μL of above cell mix was dispensed into black μclear TC treated 384 well plates with Multidrop Combi and left at room temperature for 20 minutes. • 3. Plates were incubated at 37° C., 5% CO2 for 24 h
• 1. Test compounds were prepared in concentration response in DMSO with a half-log dilution factor in DMSO in Echo 384 LDV plates starting at 10 mM. • 2. 30 nL of above test compounds were dispensed with Echo 655 to cells for a top concentration of 10 μM • 3. 10 μL PCSK9 in assay medium was dispensed to cells with Multidrop Combi for 125 nM final concentration in the wells. • 4. Plates were incubated at 37° C., 5% CO2 for 24 h
• 1. 10 μL pHrodo Red-LDL in assay medium was dispensed to cells with Multidrop Combi for […] • 2. Plates were incubated at 37° C., 5% CO2 and imaged with the Incucyte S3 after 4 h and 24 h
Image data was processed using Incucyte 2021, a software to identify cells and red fluorescent intensity. Screener was used to further process data. Data was normalized as % effect of the signal between median values of the on-plate controls of DMSO and 100 nM Evolocumab according to the formula % effect=−100*(x−DMSO)/(Evolocumab−DMSO) where x equals the measured signal. Concentration response data of the normalized values were fitted using a four-parameter logistic fit.

[3] = molecular target: T2, potassium ion channel hERG (Homo sapiens, UniProt Q12809); assay: Assay 5 hERG assay (patch clamp, CHO cells over-expressing hERG); assay type: cell-based; conditions: SyncroPatch 384PE, room temperature, geometric mean, read-out: Assay 5 (hERG Hu CHO if EPh CR-Syncro) GMean IC50
T2 construct: expressed in transfected cells; host or cells: Chinese hamster ovary K1 (CHO)
Outline: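 hERG currents recorded by automated patch clamp at room temperature in CHO-K1 cells, 6-point cumulative concentrations. SyncroPatch runs used KF-based internal (pH 7.2) and NMDG-containing external solution (pH 7.4), 0.33% DMSO; QPatchII runs used 2% or 0.4% DMSO. Only wells meeting seal-resistance and current-size criteria kept.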

[4] = molecular target: GSK3β (Glycogen synthase kinase-3 beta) (Homo sapiens, UniProt P49841); assay: Assay 6 GSK3β assay (ThermoFisher Z-Lyte FRET); assay type: biochemical; conditions: ATP Conc: 10 μM, geometric mean; read-out: Assay 6 (GSK3β FRET-Z-Lyte Cr) GMean IC50
Outline: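 Z-Lyte FRET: 0.22-0.92 ng kinase with 2 μM Ser/Thr 09 peptide in HEPES pH 7.5, MgCl2, EGTA, 60 min at room temperature, then 60 min development. Compounds in 1% DMSO, 10-point 3-fold series from 10 μM; sigmoidal dose-response fit.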

T2 sequence (Q12809 whole entry): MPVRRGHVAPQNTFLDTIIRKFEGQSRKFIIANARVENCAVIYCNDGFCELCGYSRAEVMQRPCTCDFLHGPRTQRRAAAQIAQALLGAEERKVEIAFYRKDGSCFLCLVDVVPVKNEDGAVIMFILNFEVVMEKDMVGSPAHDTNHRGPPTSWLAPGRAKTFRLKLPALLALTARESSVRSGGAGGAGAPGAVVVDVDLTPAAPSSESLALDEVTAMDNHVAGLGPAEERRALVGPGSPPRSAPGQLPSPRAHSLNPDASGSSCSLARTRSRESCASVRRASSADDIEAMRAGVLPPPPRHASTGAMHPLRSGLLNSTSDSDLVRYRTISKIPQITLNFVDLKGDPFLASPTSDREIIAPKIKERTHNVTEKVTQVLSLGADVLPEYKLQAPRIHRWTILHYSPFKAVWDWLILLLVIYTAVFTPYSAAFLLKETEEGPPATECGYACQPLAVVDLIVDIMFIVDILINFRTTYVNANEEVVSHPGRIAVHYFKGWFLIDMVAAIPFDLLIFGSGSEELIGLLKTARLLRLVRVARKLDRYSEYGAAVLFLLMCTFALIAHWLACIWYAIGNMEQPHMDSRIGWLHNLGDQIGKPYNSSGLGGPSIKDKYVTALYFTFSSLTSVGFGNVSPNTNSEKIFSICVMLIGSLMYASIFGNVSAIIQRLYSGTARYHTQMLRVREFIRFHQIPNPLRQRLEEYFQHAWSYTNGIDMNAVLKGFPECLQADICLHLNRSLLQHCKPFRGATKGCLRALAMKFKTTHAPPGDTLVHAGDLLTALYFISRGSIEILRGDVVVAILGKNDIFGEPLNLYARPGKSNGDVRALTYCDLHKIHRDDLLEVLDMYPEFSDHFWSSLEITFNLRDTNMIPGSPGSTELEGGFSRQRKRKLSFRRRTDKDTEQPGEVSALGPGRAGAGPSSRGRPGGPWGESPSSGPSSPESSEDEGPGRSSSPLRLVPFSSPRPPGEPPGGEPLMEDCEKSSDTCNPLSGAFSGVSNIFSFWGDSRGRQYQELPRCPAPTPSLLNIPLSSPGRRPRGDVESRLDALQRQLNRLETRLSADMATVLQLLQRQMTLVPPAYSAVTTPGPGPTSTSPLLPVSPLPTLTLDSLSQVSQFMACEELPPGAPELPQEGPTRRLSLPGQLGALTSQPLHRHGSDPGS
T1 sequence (Q8NBP7 with tags, fused parts or gaps V474I/G670E): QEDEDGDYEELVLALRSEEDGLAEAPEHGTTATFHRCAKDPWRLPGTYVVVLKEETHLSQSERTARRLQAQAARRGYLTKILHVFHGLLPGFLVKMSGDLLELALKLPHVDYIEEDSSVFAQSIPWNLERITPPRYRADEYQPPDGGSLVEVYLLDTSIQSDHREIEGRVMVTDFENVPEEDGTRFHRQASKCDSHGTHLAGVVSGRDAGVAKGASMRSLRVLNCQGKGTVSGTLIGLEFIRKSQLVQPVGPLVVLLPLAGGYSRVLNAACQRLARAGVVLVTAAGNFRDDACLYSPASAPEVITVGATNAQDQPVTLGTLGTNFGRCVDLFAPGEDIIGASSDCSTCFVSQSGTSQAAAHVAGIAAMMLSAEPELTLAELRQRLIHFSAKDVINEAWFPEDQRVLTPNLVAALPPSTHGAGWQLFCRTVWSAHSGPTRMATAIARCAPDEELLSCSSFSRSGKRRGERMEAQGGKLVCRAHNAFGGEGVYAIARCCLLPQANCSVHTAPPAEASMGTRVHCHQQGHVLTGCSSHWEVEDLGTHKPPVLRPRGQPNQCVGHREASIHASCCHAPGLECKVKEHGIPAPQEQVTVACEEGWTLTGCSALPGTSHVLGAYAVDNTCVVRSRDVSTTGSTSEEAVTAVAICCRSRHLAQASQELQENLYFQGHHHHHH
GSK3β (Glycogen synthase kinase-3 beta), sequence (P49841 whole entry): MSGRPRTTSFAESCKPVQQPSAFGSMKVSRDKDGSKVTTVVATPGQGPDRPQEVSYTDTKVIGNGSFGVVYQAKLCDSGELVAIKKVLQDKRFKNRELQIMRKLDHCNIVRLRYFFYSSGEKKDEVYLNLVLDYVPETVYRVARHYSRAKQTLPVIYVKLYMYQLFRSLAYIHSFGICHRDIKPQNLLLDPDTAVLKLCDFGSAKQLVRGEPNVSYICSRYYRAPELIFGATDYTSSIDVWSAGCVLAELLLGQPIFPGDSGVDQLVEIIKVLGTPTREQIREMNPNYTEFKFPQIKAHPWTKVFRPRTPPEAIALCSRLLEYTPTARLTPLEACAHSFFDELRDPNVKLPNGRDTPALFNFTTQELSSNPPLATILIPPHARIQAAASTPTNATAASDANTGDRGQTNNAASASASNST

Cc1cnc(N[C@H]2CC[C@H](Nc3ccc(-n4cccc(F)c4=O)cn3)C2)nn1 [Example 137, 3-Fluoro-6′-(((1S,3S)-3-((6-methyl-1,2,4-triazin-3-yl)amino)cyclopentyl)amino)-2H-[1,3′-bipyridin]-2-one]
IC50 [1]: 0.01 µM
EC50 [2]: 0.7 µM
IC50 [3]: > 40.1 µM
IC50 [4]: 3.52 µM

O=C(NC1COC1)c1cnc(N[C@H]2CC[C@H](Nc3ccc(-n4cccc(Cl)c4=O)cn3)C2)nn1 [Example 157, 3-(((1S,3S)-3-((3-Chloro-2-oxo-2H-[1,3′-bipyridin]-6′-yl)amino)cyclopentyl)amino)-N-(oxetan-3-yl)-1,2,4-triazine-6-carboxamide]
IC50 [1]: 0.0021 µM
EC50 [2]: 0.1 µM
IC50 [3]: > 40.1 µM
IC50 [4]: 7.78 µM

O=C(NC1COC1)c1cnc(N[C@H]2CC[C@H](Nc3ccc(-n4cccc(OC(F)(F)F)c4=O)cn3)C2)nn1 [Example 160, N-(Oxetan-3-yl)-3-(((1S,3S)-3-((2-oxo-3-(trifluoromethoxy)-2H-[1,3′-bipyridin]-6′-yl)amino)cyclopentyl)amino)-1,2,4-triazine-6-carboxamide]
IC50 [1]: 0.0069 µM
EC50 [2]: 0.2 µM
IC50 [3]: > 40.1 µM
IC50 [4]: > 10 µM

COc1ccc(=O)n(-c2ccc(N[C@H]3CC[C@H](Nc4ncc(C(=O)NC5COC5)nn4)C3)nc2)c1 [Example 154, 3-(((1S,3S)-3-((5-Methoxy-2-oxo-2H-[1,3′-bipyridin]-6′-yl)amino)cyclopentyl)amino)-N-(oxetan-3-yl)-1,2,4-triazine-6-carboxamide]
IC50 [1]: 0.014 µM
EC50 [2]: 0.2 µM
IC50 [3]: > 40.1 µM
IC50 [4]: 3.9 µM

Cc1ccc(=O)n(-c2ccc(N[C@H]3CC[C@H](Nc4ncc(C)nn4)C3)nc2)c1 [Example 130, 5-Methyl-6′-(((1S,3S)-3-((6-methyl-1,2,4-triazin-3-yl)amino)cyclopentyl)amino)-2H-[1,3′-bipyridin]-2-one]
IC50 [1]: 0.014 µM
EC50 [2]: 0.2 µM
IC50 [3]: > 40.1 µM
IC50 [4]: 5.7 µM

Cc1cccn(-c2ccc(N[C@H]3CC[C@H](Nc4ncc(C(=O)NC5COC5)nn4)C3)nc2)c1=O [Example 155, 3-(((1S,3S)-3-((3-Methyl-2-oxo-2H-[1,3′-bipyridin]-6′-yl)amino)cyclopentyl)amino)-N-(oxetan-3-yl)-1,2,4-triazine-6-carboxamide]
IC50 [1]: 0.0027 µM
EC50 [2]: 0.1 µM
IC50 [3]: > 40.1 µM
IC50 [4]: > 10 µM

O=c1ccc(-c2nnn[nH]2)cn1-c1ccc(N[C@H]2CC[C@H](Nc3ncc(C4CC4)nn3)C2)nc1 [Example 124, 6′-(((1S,3S)-3-((6-Cyclopropyl-1,2,4-triazin-3-yl)amino)cyclopentyl)amino)-5-(1H-tetrazol-5-yl)-2H-[1,3′-bipyridin]-2-one]
IC50 [1]: 0.001 µM
EC50 [2]: 0.1 µM
IC50 [3]: > 40.1 µM
IC50 [4]: 1.07 µM

O=c1c(OC(F)F)cccn1-c1ccc(N[C@H]2CC[C@H](Nc3ncc(C4CC4)nn3)C2)nc1 [Example 165, 6′-(((1S,3S)-3-((6-Cyclopropyl-1,2,4-triazin-3-yl)amino)cyclopentyl)amino)-3-(difluoromethoxy)-2H-[1,3′-bipyridin]-2-one]
IC50 [1]: 0.0013 µM
EC50 [2]: 0.1 µM
IC50 [3]: 25.5 µM
IC50 [4]: 5.1 µM

Cc1cnc(N[C@H]2CC[C@H](Nc3ccc(-n4cccc(OC(F)(F)F)c4=O)cn3)C2)nn1 [Example 138, 6′-(((1S,3S)-3-((6-Methyl-1,2,4-triazin-3-yl)amino)cyclopentyl)amino)-3-(trifluoromethoxy)-2H-[1,3′-bipyridin]-2-one]
IC50 [1]: 0.004 µM
EC50 [2]: 0.2 µM
IC50 [3]: > 40.1 µM
IC50 [4]: > 10 µM

COc1ccnn(-c2ccc(N[C@H]3CC[C@H](Nc4ncc(C)nn4)C3)nc2)c1=O [Example 220, 4-Methoxy-2-(6-(((1S,3S)-3-((6-methyl-1,2,4-triazin-3-yl)amino)cyclopentyl)amino)pyridin-3-yl)pyridazin-3(2H)-one]
IC50 [1]: 0.0017 µM
EC50 [2]: 0.2 µM
IC50 [3]: > 200 µM
IC50 [4]: > 10 µM

O=C(NC1COC1)c1cnc(N[C@H]2CC[C@H](Nc3ccc(-n4cc(Cl)ccc4=O)cn3)C2)nn1 [Example 158, 3-(((1S,3S)-3-((5-Chloro-2-oxo-2H-[1,3′-bipyridin]-6′-yl)amino)cyclopentyl)amino)-N-(oxetan-3-yl)-1,2,4-triazine-6-carboxamide]
IC50 [1]: 0.0076 µM
EC50 [2]: 0.2 µM
IC50 [3]: > 40.1 µM
IC50 [4]: > 10 µM

Cc1cnc(N[C@H]2CC[C@H](Nc3ccc(-n4cccc(-c5c[nH]nn5)c4=O)cn3)C2)nn1 [Example 200, 6′-(((1S,3S)-3-((6-Methyl-1,2,4-triazin-3-yl)amino)cyclopentyl)amino)-3-(1H-1,2,3-triazol-4-yl)-2H-[1,3′-bipyridin]-2-one]
IC50 [1]: 0.0025 µM
EC50 [2]: 0.1 µM
IC50 [3]: > 40.1 µM
IC50 [4]: > 10 µM

Cc1cnc(N[C@H]2CC[C@H](Nc3ccc(-n4cccc(-c5cn[nH]c5)c4=O)cn3)C2)nn1 [Example 199, 6′-(((1S,3S)-3-((6-Methyl-1,2,4-triazin-3-yl)amino)cyclopentyl)amino)-3-(1H-pyrazol-4-yl)-2H-[1,3′-bipyridin]-2-one]
IC50 [1]: 0.002 µM
EC50 [2]: 0.1 µM
IC50 [3]: > 40.1 µM
IC50 [4]: > 10 µM

Cc1cnc(N[C@H]2CC[C@H](Nc3ccc(-n4cc(-c5c[nH]nn5)ccc4=O)cn3)C2)nn1 [Example 208, 6′-(((1S,3S)-3-((6-Methyl-1,2,4-triazin-3-yl)amino)cyclopentyl)amino)-5-(1H-1,2,3-triazol-4-yl)-2H-[1,3′-bipyridin]-2-one]
IC50 [1]: 0.0065 µM
EC50 [2]: 0.3 µM
IC50 [3]: > 40.1 µM
IC50 [4]: 1.71 µM

N#Cc1cccn(-c2ccc(N[C@H]3CC[C@H](Nc4ncc(C(=O)NC5COC5)nn4)C3)nc2)c1=O [Example 159, 3-(((1S,3S)-3-((3-Cyano-2-oxo-2H-[1,3′-bipyridin]-6′-yl)amino)cyclopentyl)amino)-N-(oxetan-3-yl)-1,2,4-triazine-6-carboxamide]
IC50 [1]: 0.0041 µM
EC50 [2]: 0.1 µM
IC50 [3]: > 40.1 µM
IC50 [4]: > 10 µM

Cc1cnc(N[C@H]2CC[C@H](Nc3ccc(-n4c(=O)n(C)c5ccc(C#N)nc54)cn3)C2)nn1 [Example 213, 1-Methyl-3-(6-(((1S,3S)-3-((6-methyl-1,2,4-triazin-3-yl)amino)cyclopentyl)amino)pyridin-3-yl)-2-oxo-2,3-dihydro-1H-imidazo[4,5-b]pyridine-5-carbonitrile]
IC50 [1]: 0.0016 µM
EC50 [2]: 0.2 µM
IC50 [3]: > 40.1 µM
IC50 [4]: > 10 µM

O=c1ccc(-c2c[nH]nn2)cn1-c1ccc(N[C@H]2CC[C@H](Nc3ncc(C4CC4)nn3)C2)nc1 [Example 122, 6′-(((1S,3S)-3-((6-Cyclopropyl-1,2,4-triazin-3-yl)amino)cyclopentyl)amino)-5-(1H-1,2,3-triazol-4-yl)-2H-[1,3′-bipyridin]-2-one]
IC50 [1]: 0.0014 µM
EC50 [2]: 0.1 µM
IC50 [3]: > 40.1 µM
IC50 [4]: 6.17 µM

Cc1cnc(N[C@H]2CC[C@H](Nc3ccc(-n4ccc(Cl)cc4=O)cn3)C2)nn1 [Example 182, 4-Chloro-6′-(((1S,3S)-3-((6-methyl-1,2,4-triazin-3-yl)amino)cyclopentyl)amino)-2H-[1,3′-bipyridin]-2-one]
IC50 [1]: 0.0094 µM
EC50 [2]: 0.6 µM
IC50 [3]: > 40.1 µM
IC50 [4]: > 10 µM
